Consider 8 molecules from US20250059509A1, “METHOD FOR PRODUCING MACROPHAGES, DIFFERENTIATION INDUCING AGENT, DIFFERENTIATION INDUCTION KIT, METHOD FOR CULTURING MACROPHAGES, AGENT FOR PROMOTING MACROPHAGE PROPAGATION, KIT FOR PROMOTING MACROPHAGE PROLIFERATION, METHOD FOR MACROPHAGE PROLIFERATION, AND MACROPHAGES” (Kagoshima University, priority 2021, published 2025).

The test system of test [1] is mouse bone marrow cells. In words: Induction of differentiation of mouse bone marrow cells with each test substance, viable cells by WST-8 assay. Format: cell-based. Particulars: plate coated with 1 μg test substance per well; WST-8 on Days 5, 10, 14 and 20; FIG. 10. The procedure: To fresh 10% FBS/RPMI medium, 1/10 volume of WST-8 (07553-15 Cell Count Reagent SF, manufactured by Nacalai Tesque Inc.) was added to prepare a medium for counting the number of viable cells. The old medium in the culture plate was removed by aspiration, and the medium for counting the number of viable cells was dispensed at 100 μl/well. The cells were cultured at 37° C. in a 5% CO2 incubator for 1 hour. The absorbance at 450 nm was measured using a microplate reader.
A 96-well cell culture plate was coated with each test substance in the same manner as described above, and mouse bone marrow cells were plated in the plate at 4×10^4 cells/100 μl/well.
On the technique in general: Tetrazolium dyes change colour on reduction, which living cells bring about.

In test [2] the test system is TREM2. The test can be described thus: Ligand activity using TREM2 reporter cells (GFP-positive cells by flow cytometry). As to conditions: plate coated with 1 μg test substance per well; reporter cells cultured 16 hours; FIG. 9. In general terms: Flow cytometry measures light scatter and fluorescence of single cells or particles in a stream.
Protocol: Using a retroviral vector, TREM2 and DAP12 cDNAs were introduced into 2B4-NFAT-GFP reporter cells (obtained from RIKEN), to prepare reporter cells in which binding of a ligand to TREM2 expressed on the cell surface induces expression of GFP (Iizasa and others, Nature Communications, 2021, vol. 12 (1), p. 2299-16).
As a test substance, β-GluCer, α-GalCer, palmitic acid, stearic acid, cholesterol, PC, LPC, PE, Sulf, or MA was diluted with methanol to 50 μg/ml. The test substance was aliquoted in 20-μl (1-μg) portions into a 96-well cell culture plate, and then the plate was left to stand in a clean bench, to evaporate the methanol.
In the culture plate coated with the test substance, the reporter cells were plated at 5×10^4 cells/100 μl/well. The cells were cultured in a CO2 incubator for 16 hours. The culture was suspended well, and transferred to a V-bottom 96-well plate. The sample was centrifuged at 500 G at 4° C. for 5 minutes, and then the supernatant was discarded. The sample was suspended by adding 50 μl/well of 10 μg/ml PI/1% FBS/HBSS. GFP-positive cells in the sample were analyzed by flow cytometry.
Test [3] concerns LIMs and BMDMs. In words: Cryopreservation test of LIMs and BMDMs. Format: cell-based, mouse. Particulars: −80° C. for thirty days; 25 ng/ml M-CSF; viable cells Day 6 or Day 14; FIG. 6. The procedure:
LIMs and BMDMs at 80 to 90% confluence were detached from culture plates, and separately centrifuged at 500 G for 5 minutes, followed by discarding the supernatant. In a CELLBANKER 1 (manufactured by Nippon Zenyaku Kogyo Co., Ltd.), the cells were suspended at 5×10^5 to 5×10^6 cells per 1 ml, and the resulting suspension was transferred to a CryoTube, and stored at −80° C. Thirty days later, the cells were thawed, and plated in a 24-well plate without stimulation (None), with addition of 25 ng/ml M-CSF (M-CSF), or with brain lipid coating (BL). The number of viable cells on Day 6 or Day 14 after the plating was counted using a hemocytometer.

Take `CCCCCCCCCCCCCCCCCCCCCCCCCC(=O)N[C@@H](CO[C@H]1O[C@H](CO)[C@H](O)[C@H](O)[C@H]1O)[C@H](O)[C@H](O)CCCCCCCCCCCCCC` [α-GalCer, α-galactosylceramide]: in test [1], the “differentiation of bone marrow cells into LIMs” value (“differentiation” for short) is listed as “induced differentiation of the bone marrow cells into LIMs”. Also, the “ligand activity for TREM2” value in test [2] was “have ligand activity for TREM2”.

On to lysophosphatidylcholine [LPC], for which, in test [1], the “differentiation” value was “induced differentiation of the bone marrow cells into LIMs”. Moreover, the “ligand activity for TREM2” value in test [2] is recorded as “have ligand activity for TREM2”.

As to mycolic acid [MA], the “differentiation” value in test [1] was “induced differentiation of the bone marrow cells into LIMs”. Moreover, in test [2], the “ligand activity for TREM2” value is recorded as “have ligand activity for TREM2”.

As to phosphatidylcholine [PC], the “differentiation” value in test [1] was “induced differentiation of the bone marrow cells into LIMs”. For the same molecule, the “ligand activity for TREM2” value in test [2] was “have ligand activity for TREM2”.

Consider phosphatidylethanolamine [PE], for which the “differentiation” value in test [1] is “induced differentiation of the bone marrow cells into LIMs”. Moreover, the “ligand activity for TREM2” value in test [2] is “have ligand activity for TREM2”.

As for sulfatide, in test [1], the “differentiation” value is “induced differentiation of the bone marrow cells into LIMs”. For the same molecule, the “ligand activity for TREM2” value in test [2] is recorded as “have ligand activity for TREM2”.

For the molecule β-glucosylceramide [β-GluCer], in test [1], the “differentiation” value is on record as “induced differentiation of the bone marrow cells into LIMs”. For the same molecule, the “ligand activity for TREM2” value in test [2] is recorded as “have ligand activity for TREM2”.

B1: macrophage colony-stimulating factor (protein, UniProt P07141 33-552, looked up)
Macrophage colony-stimulating …: KEVSEHCSHMIGNGHLKVLQQLIDSQMETSCQIAFEFVDQEQLDDPVCYLKKAFFLVQDIIDETMRFKDNTPNANATERLQELSNNLNSCFTKDYEEQNKACVRTFHETPLQLLEKIKNFFNETKNLLEKDWNIFTKNCNNSFAKCSSRDVVTKPDCNCLYPKATPSSDPASASPHQPPAPSMAPLAGLAWDDSQRTEGSSLLPSELPLRIEDPGSAKQRPPRSTCQTLESTEQPNHGDRLTEDSQPHPSAGGPVPGVEDILESSLGTNWVLEEASGEASEGFLTQEAKFSPSTPVGGSIQAETDRPRALSASPFPKSTEDQKPVDITDRPLTEVNPMRPIGQTQNNTPEKTDGTSTLREDHQEPGSPHIATPNPQRVSNSATPVAQLLLPKSHSWGIVLPLGELEGKRSTRDRRSPAELEGGSASEGAARPVARFNSIPLTDTGHVEQHEGSSDPQIPESVFHLLVPGIILVLLTVGGLLFYKWKWRSHRDPQTLDSSVGRPEDSSLTQDEDRQVELPV
In the case of B1, the “proliferation of BMDMs thawed after cryopreservation” value in test [3] was “did not proliferate”.
